Key:
Caco-2 cell monolayer = test: Caco-2 cell permeability assay; format: in vitro ADME, human
Protocol: The human colon adenocarcinoma cell line Caco-2 was obtained from the Russian Cell Culture Collection (Institute of Cytology, Russian Academy of Sciences, St. Petersburg, Russia). Caco-2 cells were cultured in DMEM medium supplemented with 10% FBS, L-glutamine, and penicillin/streptomycin in 75 cm^2 cell culture flasks (Jet Biofil, Guangzhou, China) at 37 °C in a humidified atmosphere containing 5% CO2 in a CO2 incubator. When the cells reached 60-70% confluence, the cells were sub-cultured into new flasks (1:6 ratio). […] Samples were collected from the bottom chamber and fluorescence intensity was measured using a fluorescence plate reader (excitation 492 nm; emission 520 nm). […] The content of vitamin B12 and the content of the HA-CT-B12 conjugate equivalent to vitamin B12 were determined spectrophotometrically at 360 nm using a calibration curve. […] The Papp was calculated using the following equation [33]:(1) […]0 where Papp is the apparent permeability coefficient (cm/s); dQ/dt -is the permeation rate (μg/s); A is the monolayer area (0.3 sm^2); and C0 is the concentration in the apical chamber at the initial moment of time (μg/mL).

P. aeruginosa ATCC 27853 = test: Antimicrobial activity, microtiter broth dilution method; format: cell-based, Pseudomonas aeruginosa; settings: 1 × 10^7 CFU/mL, Mueller–Hinton broth, 24 h at 37 °C, OD 630 nm, concentration equivalent to CT
Protocol: The antimicrobial activity of HA–CT–B12 was tested using the microtiter broth dilution method, as previously reported. P. aeruginosa ATCC 27853 (Museum of Microbiological Cultures, State Research Institute of Highly Pure Biopreparations, St. Petersburg, Russia) was used as the experimental microorganism. Briefly, HA–CT–B12 conjugate stock solutions were prepared by diluting samples in Mueller–Hinton broth to a maximum 2-fold concentration equivalent to CT. Serial dilutions of CT (64 to 0.25 μg/mL) were then plated on Luria-Bertani agar culture plates. The antimicrobial efficacy of the HA–CT–B12 conjugates was confirmed by the absence of P. aeruginosa growth. P. aeruginosa suspension was serially diluted 1:100 in Müller–Hinton broth to obtain a concentration of approximately 1 × 10^7 CFU/mL. Then, 125 µL of the inoculum was added to the wells of the culture plate containing HA–CT–B12 solutions in Müller–Hinton broth. […] The plate was incubated for 24 h at 37 °C and the optical density (OD) was measured at 630 nm using an ELx808™ Absorbance Microplate Reader (BioTek Instruments, Winooski, VT, USA). Relative bacterial growth (%) was calculated as the ratio of OD630 at each concentration of the test samples to OD630 in the control (0 μg/mL). […]

Substance | Apparent permeability coefficient (Papp) (Caco-2 cell monolayer; Caco-2) | Minimum inhibitory concentration (MIC) (P. aeruginosa ATCC 27853) | Apparent permeability coefficient (Papp) (Caco-2 cell monolayer; Caco-2 monolayer, day 21, apical to basolateral, PBS, 2 h with sampling every 30 min, 1 mg CT, 28.5 mg vitamin B12 or 300 mg conjugate in 5 mL PBS, 0.5 mL applied, B12 and conjugate read at 360 nm, mean of n = 3)
colistin [CT] | 0.04 ×10⁻⁶ cm/s | 2 µg/mL | –
cyanocobalamin [vitamin B12] | – | – | 5.4 ×10⁻⁶ cm/s

From PMC10380726, “Cyanocobalamin-Modified Colistin–Hyaluronan Conjugates: Synthesis and Bioactivity” (International Journal of Molecular Sciences, 2023)
